From patent US20080119517A1, “COMPOSITIONS AND METHODS FOR PROTECTING AGAINST MITOCHONDRIA COMPONENT-MEDIATED PATHOLOGY” (Cornell Research Foundation, Inc., priority 2003, published 2008)
“Also recorded” adds a separate entry of the source.

Tests used:
[1] = system: apoptosis / PT induction; details: suggested; by reducing mitochondrial oxidative stress; cited from earlier work
[2] = biological target: calmodulin (Homo sapiens, UniProt P0DP23); assay: Calmodulin-dependent calcineurin activity (pNPP hydrolysis); details: 300 μM compound
[3] = system: isolated liver mitochondria; assay: Four-parameter mitochondrial physiology (oxygen, Ca2+, membrane potential, swelling); format: biochemical, rat; details: 10 μM; for protection against PT induction (swelling, A660): high Ca2+ dose
Procedure: Mitochondrial physiological parameters were assessed to determine whether these heterocyclics and related compounds interfered direly with mitochondrial functions, and whether such interference might underlie their protection (e.g., respiratory inhibitors can score as protective in some assays, as can uncouplers, but neither would be optimal as a therapeutic candidate). […]; methiothepin [serotonin modulator]; clomipramine [antidepressant]).
FIG. 5 illustrates that the heterocyclic compounds delay PT induction in isolated liver mitochondria without impairing mitochondrial physiology. FIG. 5a depicts oxygen consumption measured by Clark electrode. Oxygen concentration in buffer decreases as the signal decreases. FIG. 5b depicts Ca^2+ transport measured by Ca^2+— selective electrode. The Ca^2+ in buffer increases as the signal increases. FIG. 5c depicts Δψ measured using a TPP^+ electrode. The Δψ parameter decreases as the signal increases. TPP^+ uptake determined by comparison with standard curve after correction for shift in the electrode signal is induced by the compounds examined. […] Changes in Δψ consistent with the slight increases in respiration (equivalent to approximately 5% of maximally uncoupled mitochondria) observed with some drags is likely below the limit of detection. FIG. 5d depicts mitochondrial swelling (absorbance) monitored by a light emitting diode BET) at A660. Mitochondrial are more swollen when signal decreases. Assay in 300 mM sucrose, 2.5 mM K—PO4, 3 mM HERPES, pH 7.2 and 5 mM succinate. Experiments were stopped shortly after oxygen was consumed.
Liver mitochondrial respiration was measured in 250 mM sucrose, 3 mM MgCl2, 0.5 mM EDTA, 10 mM KH2PO4 (pH 7.2). The buffer was equilibrated at 28° C. for not less than an hour before taking measurements. Respiration was initiated by adding mitochondria isolate to the oxygraph cell (0.9±0.2 mg/mL protein). State 3 respiration was initiated with ADP (˜200 μM). The substrates were added at either 5 or 10 mM for α-ketoglutarate and glutamate/malate and 10-20 mM for succinate. Respiration rates were determined using a PC-controlled Strathkelvin Instruments Limited 928 6-Channel Dissolved Oxygen System with two standard Clark-type electrodes fitted to two standard Gilson 1.7-1.8 mL oxygraph cells. Traces were analyzed using the Strathkelvin data acquisition and analysis program included with the instrument. The lines of best fit were calculated and plotted to polarographic traces using the built-in software function based on least squares regression analysis. State 3 respiration rates were calculated when stabilized, i.e., 1.0-1.5 minutes after initiating the state. Respiration before and after ADP consumption was used to calculated RCR. All experiments were carried out in triplicate. All substrates used in mitochondrial respiration experiments were dissolved in respiration buffer (see below) and brought to neutral pH.
The experimental system employed comprises a respiration chamber that can be sealed and placed in a light tight outer chamber. Electrodes and sensors are positioned in a single plane around the outside of the chamber—this system enables simultaneous measurement of oxygen uptake, membrane potential, calcium, and light scattering (absorbance). Oxygen uptake, membrane potential, and Cab are measured using Clark, TPP^+, and Ca^2+-sensitive electrodes, respectively see, Zhu, S., et al., Nature 417:74-78, 2002. A660 is measured using a diode. The chamber is water-jacketed to allow thermostabilization (15-to-1 water volume to sample volume −1 mL, closed chamber). Samples were constantly stirred using a top-mounted magnetic stir bar. Signals measured from electrodes and sensors are recorded on a computer through a commercially available L-154 card. Software has been written to enable data collection and analysis. All experiments were carried out in triplicate. Plots shown in the paper are representative.

[4] = system: PT induction in isolated rat liver mitochondria; assay: High throughput spectrophotometric PT-induced swelling assay following Ca2+ challenge; format: biochemical; details: for protection against PT induction, score in the initial screen: 10 μM, blind library screen
Text: This library was primarily composed of clinically-approved drugs that could readily be moved to late stage pre-clinical trials and then into accelerated clinical trials. […] The remainder of the library largely consisted of some analogues of these drugs, other known bioactive agents (including natural products, toxins and known inhibitors). Screening of this library was blind and was designed to identify compounds that acted independently of antioxidant activity or ability to chelate Ca^2+ (FIG. 2).
Assays were performed on mitochondria energized with succinate, glutamate/malate, or α-ketoglutarate. […] Subsequent assays (see, Table 1) repeated this approach using inducers optimized to overcome protection mediated by chelators (high C^2+ or antioxidants (high tert-butyl hydroperoxide), based on the rationale that it was unlikely to identify novel drug activities in these categories.
Each of these compounds was re-assayed against three models of PT induction and ranked according to the resistance it conferred to induction.
Bars are coded by each drug's therapeutic class. […] Compounds were assayed in triplicate at 7 concentrations (30, 10, 3, 1, 0.3, 0.1, and 0.03 μM) against three different challenges (50 μM Ca^2+/2.5 mM K—PO4, 25 μM Ca^2+/5 mM K—PO4, 25 μM Ca^2+/2.5 mM K—PO4/100 μM tert-butyl hydroperoxide). […] To address potential inaccuracies introduced by calculation of the area under the curve, protection was also assayed as percent absorbance remaining when absorbance of an unprotected sample had dropped and stabilized. […] “N” for each drug is 7 to 9. Horizontal lines show mean and mean plus one standard deviation.

[5] = system: gerbil ischemia-reperfusion model; details: cited from earlier work
[6] = system: humans; details: human, in vivo; cited from earlier work
[7] = system: ischemia-reperfusion injury in multiple models; details: cited from earlier work
[8] = system: phospholipase A2 (PLA2); details: cited from earlier work
[9] = system: rabbit models of cerebral and spinal ischemia; details: in vivo; cited from earlier work
[10] = system: mouse middle cerebral artery occlusion (MCAO); details: in vivo
[11] = system: primary cerebrocortical neurons; assay: Oxygen-glucose deprivation (OGD) of cultured primary cerebrocortical neurons; format: cell-based, mouse
Procedure: Heterocyclic-mediated protection was next examined in two models of stroke: (i) oxygen-glucose deprivation (OGD) of cultured primary cerebrocortical neurons, and; (ii) in the mouse, middle cerebral artery occlusion (MCAO)/reperfusion.
Neurotoxicity studies were conducted as previously described. […] Cerebral cortex of mouse embryos at day 15 (E15) were freed from meninges and separated from olfactory bulb and hippocampus.
OGD of primary cerebrocortical neurons is a widely used cell culture model of stroke-related pathology. […] Caspase-3 activation plays a key role in hypoxia/ischemia-mediated injury. To gam insight into the mechanism of promethazine-mediated neuroprotection, it was evaluated whether this compound could inhibit OGD-mediated caspase-3 activation.

CSc1ccc2c(c1)N(CCC1CCCCN1C)c1ccccc1S2 (stereo not drawn) [Thioridazine]
PT induction [1]: delay | apoptosis [1]: inhibit

CCOC(=O)N1CCC(=C2c3ccc(Cl)cc3CCc3cccnc32)CC1 [Loratadine]
calmodulin activity (ratio to untreated plate controls) [2]: apparent calmodulin activation

OCCN1CCN(CCCN2c3ccccc3Sc3ccc(C(F)(F)F)cc32)CC1 [Flufenazine]
Ca2+ transport [3]: without affecting | initial oxygen consumption prior to PT induction [3]: without affecting | resting or recovered Δψ [3]: without affecting | protection against PT induction (swelling, A660) [3]: protected

CC/C(=C(\c1ccccc1)c1ccc(OCCN(C)C)cc1)c1ccccc1 [tamoxifen]
protection against PT induction, score in the initial screen [4]: moderate

CN1CCN2c3ccccc3Cc3ccccc3C2C1 (stereo not drawn) [Mianserin]
protection in the gerbil ischemia model ([5]; 5-20 mg/kg): protects

CN1CCN(CCCN2c3ccccc3Sc3ccc(C(F)(F)F)cc32)CC1 [Trifluoperazine]
protection against PT induction, score in the initial screen [4]: moderate | tolerability in humans [6]: limited utility for long-term use in humans because of its toxicity | protection against ischemia-reperfusion injury [7]: protective | phospholipase A2 (PLA2) inhibition [8]: can inhibit | functional impairment [9]: reduced

CN(C)CCCN1c2ccccc2CCc2ccc(Cl)cc21 [Clomipramine]
Ca2+ transport [3]: without affecting | initial oxygen consumption prior to PT induction [3]: without affecting | resting or recovered Δψ [3]: without affecting | protection against PT induction (swelling, A660) [3]: protected | hippocampal CA1 neuronal damage ([5]; 20 mg/kg): protect

CN1CCN(CC(=O)N2c3ccccc3C(=O)Nc3cccnc32)CC1 [pirenzepine]
calmodulin activity (ratio to untreated plate controls) [2]: apparent calmodulin activation

CNCCC=C1c2ccccc2CCc2ccccc21 [Nortriptyline]
infarct (stroke) volume [10]: significant reduction | infarct area in coronal slices compared to the controls [10]: decreases | neurological examination following cerebral ischemia [10]: improves | neuroprotection following MCAO [10]: mediates neuroprotection | OGD-mediated caspase-3 activation [11]: inhibits; also recorded: attenuated | OGD mediated cytochrome C release ([11]; Western blot): Inhibiting; also recorded: minimized | OGD cell death as measured by LDH release ([11]; nortriptyline): preventing cell death; also recorded: reduction

CN(C)CCCN1c2ccccc2Sc2ccc(Cl)cc21 [Chlorpromazine]
functional impairment [9]: reduced

CSc1ccc2c(c1)C(N1CCN(C)CC1)Cc1ccccc1S2 (stereo not drawn) [Methiothepin]
Ca2+ transport [3]: without affecting | initial oxygen consumption prior to PT induction [3]: without affecting | resting or recovered Δψ [3]: without affecting | protection against PT induction (swelling, A660) [3]: protected | relative potency as PT inhibitor ([4]; ranking among the heterocyclics): approximately equivalent to promethazine in potency
